Source: patent US10633338B2, “Binding Function 3 (BF3) site compounds as therapeutics and methods for their use” (THE UNIVERSITY OF BRITISH COLUMBIA, priority 2014, dated 2020)

How the values were obtained:
PSA = experiment: Prostate Surface Antigen (PSA) assay, PSA excreted into the media; format: cell-based, human; settings: PSA excreted into media, same plates as eGFP assay, 3 days incubation; for IC50: Homo sapiens, 72 h, read-out: PSA IC50
Experimental: The evaluation of PSA excreted into the media was performed in parallel to the eGFP assay using the same plates (see above description). After the cells were incubated for 3 days 150 μl of the media was taken from each well, and added to 150 μl of PBS.

androgen receptor (AR) = biological target: T1, androgen receptor (AR) (Homo sapiens, UniProt P10275, T878A); experiment: eGFP cellular AR transcription assay; format: cell-based; settings: LN-ARR2PBeGFP LNCaP cells, 0.1 nM R1881, 3 days incubation; for IC50: read-out: eGFP IC50
T1 construct: stably transfected eGFP-expressing LNCaP human prostate cancer cells (LN-ARR2PB-eGFP) containing an androgen responsive probasin-derived promoter; endogenous in cells; host or cells: LNCaP (LN-ARR2PB-eGFP)
T1 sequence (P10275 1-920 T878A): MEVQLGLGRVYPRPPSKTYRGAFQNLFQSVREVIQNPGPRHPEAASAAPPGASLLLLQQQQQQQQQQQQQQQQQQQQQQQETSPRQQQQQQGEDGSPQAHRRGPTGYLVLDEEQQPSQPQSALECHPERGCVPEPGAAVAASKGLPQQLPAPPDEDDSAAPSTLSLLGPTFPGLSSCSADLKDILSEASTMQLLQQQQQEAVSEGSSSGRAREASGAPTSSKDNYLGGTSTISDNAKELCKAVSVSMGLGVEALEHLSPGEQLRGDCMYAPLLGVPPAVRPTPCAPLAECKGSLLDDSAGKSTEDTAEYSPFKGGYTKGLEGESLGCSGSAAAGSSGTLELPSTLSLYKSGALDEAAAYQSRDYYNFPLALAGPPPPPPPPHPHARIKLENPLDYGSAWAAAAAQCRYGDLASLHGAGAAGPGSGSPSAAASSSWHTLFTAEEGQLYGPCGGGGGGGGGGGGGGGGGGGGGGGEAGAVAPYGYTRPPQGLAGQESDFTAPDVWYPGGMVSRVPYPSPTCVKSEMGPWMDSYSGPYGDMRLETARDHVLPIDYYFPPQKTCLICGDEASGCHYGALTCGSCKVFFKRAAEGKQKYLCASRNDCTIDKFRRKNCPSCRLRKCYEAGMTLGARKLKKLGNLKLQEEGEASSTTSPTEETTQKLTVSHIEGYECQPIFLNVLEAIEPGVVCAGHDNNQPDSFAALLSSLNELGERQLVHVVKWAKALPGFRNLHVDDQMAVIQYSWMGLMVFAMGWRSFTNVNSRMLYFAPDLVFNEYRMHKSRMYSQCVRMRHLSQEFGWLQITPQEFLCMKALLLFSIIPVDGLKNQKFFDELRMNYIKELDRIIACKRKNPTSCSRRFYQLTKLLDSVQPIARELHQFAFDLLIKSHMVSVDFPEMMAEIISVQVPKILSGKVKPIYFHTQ
Procedure, shortened: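 AR transcriptional activity is read as eGFP expression from a probasin-derived androgen-responsive promoter. Compound titrated 0-100 μM in the presence of 0.1 nM R1881; 35,000 cells/well.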

SMILES | PSA IC50 (PSA) | eGFP IC50 (androgen receptor (AR)) | IC50 (PSA) | IC50 (androgen receptor (AR))
Cc1cc(C)c2[nH]cc(-c3ccc4cc(F)ccc4n3)c2c1 [Compound 13599] | Inactive | Inactive | – | –
Cc1ccc(C)c2c(-c3ccc4ccccc4n3)c[nH]c12 [Compound 13600] | – | – | 929 nM | 1250 nM
Cc1cccc2c(-c3ncc4ccccc4n3)c[nH]c12 [Compound 13603] | – | – | 339 nM | 633 nM
Cc1cccc2c(C3=Nc4ccccc4CN3)c[nH]c12 [Compound 13604] | Inactive | Inactive | – | –
Cc1cccc2c(-c3ccc4c(Cl)cccc4n3)c[nH]c12 [Compound 13605] | Inactive | Inactive | – | –
Cc1cc(C)c2[nH]cc(-c3ccc4c(C#N)cccc4n3)c2c1 [Compound 13608] | Inactive | Inactive | – | –
Cc1c(F)ccc2c(-c3ccc4c(C#N)cccc4n3)c[nH]c12 [Compound 13609] | Inactive | Inactive | – | –
Cc1cc(F)c2[nH]cc(-c3ccc4ccccc4n3)c2c1 [Compound 13612] | – | – | 813 nM | 1440 nM
Fc1c(Cl)ccc2c(-c3ccc4ccccc4n3)c[nH]c12 [Compound 13613] | – | – | 1740 nM | 11500 nM
Fc1ccc2nc(-c3c[nH]c4cc(F)c(F)cc34)ccc2c1 [Compound 13614] | – | – | 597 nM | 1120 nM
CNC(=O)c1cccc2nc(-c3c[nH]c4c(C)c(F)ccc34)ccc12 [Compound 13615] | Inactive | Inactive | – | –
Cc1cccc2nc(-c3c[nH]c4c(C)c(F)ccc34)ccc12 [Compound 13616] | Inactive | Inactive | – | –
Fc1ccc2c(-c3ccc4c(C(F)(F)F)cccc4n3)c[nH]c2c1F [Compound 13617] | Inactive | Inactive | – | –
Cc1cccc2c(-c3ccc4c(O)cccc4n3)c[nH]c12 [Compound 13620] | Inactive | Inactive | – | –
Brc1cccc2c(-c3ccc4ccccc4n3)c[nH]c12 [Compound 13621] | – | – | 8 nM | 20 nM
Cc1cccc2c(-c3ccc4c(F)cccc4n3)c[nH]c12 [Compound 13623] | Inactive | Inactive | – | –
Cc1cc(Cl)cc2c(-c3ccc4ccccc4n3)c[nH]c12 [Compound 13626] | – | – | 1650 nM | 2700 nM
c1ccc2ncc(-c3c[nH]c4ccccc34)cc2c1 [Compound 13628] | – | – | 610 nM | 800 nM
Oc1cc2ccccc2nc1-c1c[nH]c2cc(F)c(F)cc12 [Compound 13629] | – | – | 1780 nM | 4900 nM
Fc1ccc2ccc(-c3c[nH]c4cc(F)c(F)cc34)nc2c1 [Compound 13630] | – | – | 430 nM | 600 nM
Cc1c(F)ccc2c(-c3ccc4c(F)cccc4n3)c[nH]c12 [Compound 13631] | Inactive | Inactive | – | –
Cc1cccc2c(-c3ccc4c([N+](=O)[O-])cccc4n3)c[nH]c12 [Compound 13632] | Inactive | Inactive | – | –
Cc1c(F)ccc2c(-c3ccc4cccc(F)c4n3)c[nH]c12 [Compound 13635] | Inactive | Inactive | – | –
Cc1cc(C)c2nc(-c3c[nH]c4c(C)c(F)ccc34)ccc2c1 [Compound 13636] | Inactive | Inactive | – | –
